This series is described as follows: xn = mol fraction of the nth substance listed. As to conditions: 100 kPa, Liquid, Vibrating tube method.

± gives the expanded uncertainty stated by the source.

The term mass density denotes the mass of a sample divided by its volume. In the case of `[Cl-].[K+]` [potassium chloride] + O, the mass density reads like this: (293.15 K, x1 = 0.01) 1024.3 ± 0.2 kg/m3; (293.15 K, x1 = 0.03) 1074.8 ± 0.2 kg/m3; (293.15 K, x1 = 0.05) 1123.6 ± 0.3 kg/m3; (303.15 K, x1 = 0.01) 1021.4 ± 0.2 kg/m3; (303.15 K, x1 = 0.03) 1071.2 ± 0.2 kg/m3; (303.15 K, x1 = 0.05) 1119.6 ± 0.3 kg/m3. In addition, the mass density (313.15 K, x1 = 0.01) is given as 1017.7 ± 0.2 kg/m3; the mass density (313.15 K, x1 = 0.03) was 1067 ± 0.2 kg/m3; the mass density (313.15 K, x1 = 0.05) was 1115.1 ± 0.3 kg/m3; the mass density (323.15 K, x1 = 0.01) is 1013.3 ± 0.2 kg/m3; the mass density (323.15 K, x1 = 0.03) turned out to be 1062.4 ± 0.2 kg/m3; the mass density (323.15 K, x1 = 0.05) is 1110.2 ± 0.3 kg/m3. Further, the mass density (333.15 K, x1 = 0.01) came out at 1008.4 ± 0.2 kg/m3; the mass density (333.15 K, x1 = 0.03) came to 1057.2 ± 0.3 kg/m3; the mass density (333.15 K, x1 = 0.05) is reported as 1104.9 ± 0.3 kg/m3.
On to `[F-].[K+]` [potassium fluoride] + O, for which the mass density by setting is: (293.15 K, x1 = 0.01) 1025.7 ± 0.2 kg/m3; (293.15 K, x1 = 0.03) 1080.5 ± 0.2 kg/m3; (293.15 K, x1 = 0.05) 1135.5 ± 0.3 kg/m3; (303.15 K, x1 = 0.01) 1022.8 ± 0.2 kg/m3; (303.15 K, x1 = 0.03) 1077 ± 0.2 kg/m3; (303.15 K, x1 = 0.05) 1130.7 ± 0.3 kg/m3. The mass density by setting is: (313.15 K, x1 = 0.01) 1019.2 ± 0.2 kg/m3; (313.15 K, x1 = 0.03) 1072.9 ± 0.2 kg/m3; (313.15 K, x1 = 0.05) 1126.5 ± 0.3 kg/m3; (323.15 K, x1 = 0.01) 1014.8 ± 0.2 kg/m3; (323.15 K, x1 = 0.03) 1068.4 ± 0.2 kg/m3; (323.15 K, x1 = 0.05) 1121.9 ± 0.3 kg/m3. Also, the mass density by setting is: (333.15 K, x1 = 0.01) 1010 ± 0.2 kg/m3; (333.15 K, x1 = 0.03) 1063.5 ± 0.2 kg/m3; (333.15 K, x1 = 0.05) 1116.9 ± 0.3 kg/m3.
`[I-].[K+]` [potassium iodide] + O: the mass density was 1065.2 ± 0.2 kg/m3 (293.15 K, x1 = 0.01); 1194 ± 0.3 kg/m3 (293.15 K, x1 = 0.03); 1317.9 ± 0.4 kg/m3 (293.15 K, x1 = 0.05); 1061.9 ± 0.2 kg/m3 (303.15 K, x1 = 0.01); 1189.3 ± 0.3 kg/m3 (303.15 K, x1 = 0.03); 1312.1 ± 0.4 kg/m3 (303.15 K, x1 = 0.05). Further, the mass density (313.15 K, x1 = 0.01) is 1057.9 ± 0.2 kg/m3; the mass density (313.15 K, x1 = 0.03) was found to be 1184.1 ± 0.3 kg/m3; the mass density (313.15 K, x1 = 0.05) is recorded as 1306 ± 0.4 kg/m3; the mass density (323.15 K, x1 = 0.01) came to 1053.2 ± 0.2 kg/m3; the mass density (323.15 K, x1 = 0.03) came to 1178.4 ± 0.3 kg/m3; the mass density (323.15 K, x1 = 0.05) is on record as 1299.3 ± 0.4 kg/m3. The mass density is reported as 1047.9 ± 0.2 kg/m3 (333.15 K, x1 = 0.01); 1172.3 ± 0.3 kg/m3 (333.15 K, x1 = 0.03); 1292.4 ± 0.4 kg/m3 (333.15 K, x1 = 0.05).
Take `[Br-].[Rb+]` [rubidium bromide] + O: the mass density is on record as 1068.6 ± 0.2 kg/m3 (293.15 K, x1 = 0.01); 1204.6 ± 0.3 kg/m3 (293.15 K, x1 = 0.03); 1336.9 ± 0.4 kg/m3 (293.15 K, x1 = 0.05); 1065 ± 0.2 kg/m3 (303.15 K, x1 = 0.01); 1199.7 ± 0.3 kg/m3 (303.15 K, x1 = 0.03); 1331 ± 0.4 kg/m3 (303.15 K, x1 = 0.05). In addition, the mass density (313.15 K, x1 = 0.01) worked out at 1060.7 ± 0.2 kg/m3; the mass density (313.15 K, x1 = 0.03) is 1194.5 ± 0.3 kg/m3; the mass density (313.15 K, x1 = 0.05) came out at 1324.9 ± 0.4 kg/m3; the mass density (323.15 K, x1 = 0.01) is 1056 ± 0.2 kg/m3; the mass density (323.15 K, x1 = 0.03) is 1188.9 ± 0.3 kg/m3; the mass density (323.15 K, x1 = 0.05) stood at 1318.6 ± 0.4 kg/m3. Moreover, the mass density is, setting by setting: (333.15 K, x1 = 0.01) 1050.9 ± 0.2 kg/m3; (333.15 K, x1 = 0.03) 1182.9 ± 0.3 kg/m3; (333.15 K, x1 = 0.05) 1312.2 ± 0.4 kg/m3.
